Measurements from patent publication US12187773B2, “Modified GIP peptide analogues” (Antag Therapeutics ApS, priority 2018, dated 2025).
*1 amine or outer side, *2 acyl side, *3 side chain or, on linkers, in order; H or OH if unused. Where a SMILES comes first, the peptide text is derived from it. Side-chain parts run from the residue outwards. The star is where a group is joined. C16 diacid = O=C(O)CCCCCCCCCCCCCCC(=O)*; γGlu = O=C(O)[C@H](CCC(=O)[*:2])N[*:1]; AEEA = NCCOCCOCC(=O)O

Legend:
Assay type in all cases: cell-based
human GIP receptor [1] = biological target: T1, human GIP receptor (Homo sapiens, UniProt P48546); test: cAMP agonism (CisBio cAMP Dynamic 2 HTRF assay); conditions: HEK293, read-out: cAMP agonism, % Efficacy, Table 1C, HEK-293 cells
T1 sequence (P48546 22-466): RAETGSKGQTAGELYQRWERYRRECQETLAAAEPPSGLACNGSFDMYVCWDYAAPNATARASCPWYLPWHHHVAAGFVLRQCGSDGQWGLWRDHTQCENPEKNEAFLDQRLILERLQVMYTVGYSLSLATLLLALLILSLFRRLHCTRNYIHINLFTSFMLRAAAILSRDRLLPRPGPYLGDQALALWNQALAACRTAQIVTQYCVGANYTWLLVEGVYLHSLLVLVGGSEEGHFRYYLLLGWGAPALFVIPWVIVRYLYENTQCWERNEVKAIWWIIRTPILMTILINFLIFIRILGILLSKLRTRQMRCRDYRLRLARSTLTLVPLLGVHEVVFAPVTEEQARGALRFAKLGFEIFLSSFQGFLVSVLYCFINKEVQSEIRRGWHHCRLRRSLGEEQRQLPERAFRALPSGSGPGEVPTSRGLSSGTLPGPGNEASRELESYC
Procedure: To test for agonistic properties at the GIP receptor, compounds were diluted and added to cells as described above and incubated for 30 min at 37° C. The resulting increase in intracellular cAMP was determined using the CisBio cAMP Dynamic 2 HTRF Assay Kit as described above.

GLP1 receptor (GLP1R) = biological target: T2, GLP1 receptor (GLP1R) (Homo sapiens, UniProt P43220); test: cAMP assay - selectivity, antagonism at GLP1 receptor; conditions: Table 3A
T2 construct: expressed in transfected cells; host or cells: COS-7 (transient)
T2 sequence (P43220 24-463, species assumed): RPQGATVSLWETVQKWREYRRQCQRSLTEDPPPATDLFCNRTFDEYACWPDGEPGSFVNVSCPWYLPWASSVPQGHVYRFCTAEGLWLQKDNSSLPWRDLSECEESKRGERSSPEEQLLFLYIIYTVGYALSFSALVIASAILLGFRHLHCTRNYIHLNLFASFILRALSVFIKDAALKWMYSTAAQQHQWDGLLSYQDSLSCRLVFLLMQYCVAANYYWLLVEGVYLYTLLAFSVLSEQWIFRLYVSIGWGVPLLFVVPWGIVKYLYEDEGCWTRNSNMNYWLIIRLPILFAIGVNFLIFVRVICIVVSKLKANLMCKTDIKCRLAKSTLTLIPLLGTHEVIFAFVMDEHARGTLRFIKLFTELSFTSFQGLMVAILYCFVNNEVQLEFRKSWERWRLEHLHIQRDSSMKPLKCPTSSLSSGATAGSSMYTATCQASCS
Procedure: (§1) Transient transfected COS-7 cells expressing the either of the GLP1 receptor (GLP1R), GLP2 receptor (GLP2R), glucagon receptor (GcgR) or secretin receptor (SCTR) were seeded in white 96-well plates with a density of 3.5*10^4/well. The day after, the cells were washed twice with Hepes buffered saline (HBS) buffer and incubated with HBS and 1 mM 3-isobutyl-1-methylxanthine (IBMX) for 30 min at 37° C. To test for agonistic properties, ligands were added and incubated for 30 min at 37° C. In order to test for antagonistic properties, the cells were preincubated with the antagonists for 10 min prior to the addition the natural agonist for the expressed receptor (GLP1 for GLP1R expressing cells, GLP2 for GLP2R expressing cells, glucagon for the GcgR and secretin for the SCTR) and subsequent incubated for 20 additional min. […] The HitHunter™ cAMP XS assay (DiscoveRx) was carried out according to the manufacturer's instructions.

glucagon receptor (GcgR) = biological target: T3, glucagon receptor (GcgR) (Homo sapiens, UniProt P47871); test: cAMP assay - selectivity, antagonism at glucagon receptor; conditions: Table 3A; COS-7 cells; agonist glucagon at 50-80% of maximal cAMP
T3 construct: expressed in transfected cells; host or cells: COS-7 (transient)
T3 sequence (P47871 26-477, species assumed): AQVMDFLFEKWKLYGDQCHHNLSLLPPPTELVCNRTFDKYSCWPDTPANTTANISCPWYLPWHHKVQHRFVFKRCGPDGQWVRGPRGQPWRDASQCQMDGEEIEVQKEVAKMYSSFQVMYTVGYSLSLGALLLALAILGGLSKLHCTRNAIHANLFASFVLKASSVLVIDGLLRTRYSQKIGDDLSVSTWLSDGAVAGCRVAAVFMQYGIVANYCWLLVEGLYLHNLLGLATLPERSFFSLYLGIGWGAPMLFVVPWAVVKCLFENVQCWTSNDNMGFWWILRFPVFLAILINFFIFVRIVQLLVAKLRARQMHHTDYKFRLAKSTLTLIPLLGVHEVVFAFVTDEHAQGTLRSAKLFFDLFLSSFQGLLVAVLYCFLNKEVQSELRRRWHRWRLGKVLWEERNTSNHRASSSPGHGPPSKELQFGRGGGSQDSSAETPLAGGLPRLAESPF
Procedure: as §1

GLP2 receptor (GLP2R) = biological target: T4, GLP2 receptor (GLP2R) (Homo sapiens, UniProt O95838); test: cAMP assay - selectivity, antagonism at GLP2 receptor; conditions: Table 3B; COS-7 cells; agonist GLP2
T4 construct: expressed in transfected cells; host or cells: COS-7 (transient)
T4 sequence (O95838 1-553): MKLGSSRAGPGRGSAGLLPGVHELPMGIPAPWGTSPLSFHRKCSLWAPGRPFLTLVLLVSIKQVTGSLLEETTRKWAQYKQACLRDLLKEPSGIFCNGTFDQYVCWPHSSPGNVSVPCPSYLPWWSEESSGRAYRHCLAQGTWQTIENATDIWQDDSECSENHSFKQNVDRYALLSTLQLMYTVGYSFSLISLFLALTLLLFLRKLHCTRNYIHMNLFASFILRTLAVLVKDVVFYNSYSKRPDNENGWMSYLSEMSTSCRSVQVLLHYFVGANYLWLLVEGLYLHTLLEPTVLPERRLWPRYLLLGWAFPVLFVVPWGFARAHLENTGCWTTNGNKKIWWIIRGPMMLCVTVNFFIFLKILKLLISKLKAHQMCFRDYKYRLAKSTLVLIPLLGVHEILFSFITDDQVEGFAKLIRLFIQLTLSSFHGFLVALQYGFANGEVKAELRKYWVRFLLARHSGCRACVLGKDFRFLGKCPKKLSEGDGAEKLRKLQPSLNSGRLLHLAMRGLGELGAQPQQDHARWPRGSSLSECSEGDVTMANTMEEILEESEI
Procedure: as §1

secretin receptor (SCTR) = biological target: T5, secretin receptor (SCTR) (Homo sapiens, UniProt P47872); test: cAMP assay - selectivity, antagonism at secretin receptor; conditions: Table 3B; COS-7 cells; agonist secretin
T5 construct: expressed in transfected cells; host or cells: COS-7 (transient)
T5 sequence (P47872 23-440, species assumed): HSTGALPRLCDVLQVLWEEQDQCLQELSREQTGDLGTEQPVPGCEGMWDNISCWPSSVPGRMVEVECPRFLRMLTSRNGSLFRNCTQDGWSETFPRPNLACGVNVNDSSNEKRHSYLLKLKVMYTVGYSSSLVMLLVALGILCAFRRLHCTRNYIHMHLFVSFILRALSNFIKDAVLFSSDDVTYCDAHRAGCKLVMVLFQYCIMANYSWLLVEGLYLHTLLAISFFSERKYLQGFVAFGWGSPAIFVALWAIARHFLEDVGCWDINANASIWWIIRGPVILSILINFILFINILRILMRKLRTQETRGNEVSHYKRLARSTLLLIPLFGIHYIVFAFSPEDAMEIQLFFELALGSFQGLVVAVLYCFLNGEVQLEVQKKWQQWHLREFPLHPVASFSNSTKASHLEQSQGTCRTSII
Procedure: as §1

human GIP receptor [2] = biological target: T1, human GIP receptor; test: cAMP antagonism (CisBio cAMP Dynamic 2 HTRF assay); parameters: pCMV-Script vector
Procedure, shortened: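 Four-parameter fits of cAMP dose-response gave pIC50. cAMP fall was quantified by HTRF competition, ratio 665/620 nm after 60 min at room temperature, against a cAMP standard curve.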

human GIP receptor [3] = biological target: T1, human GIP receptor; test: cAMP accumulation, antagonism (DiscoveRx HitHunter cAMP XS assay); parameters: host or cells: COS-7 (transient, calcium phosphate; pCMV-Script vector); conditions: cAMP antagonism, nM (IC50), Table 1B; DiscoveRx; transiently transfected COS-7 cells
Procedure, shortened: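 Transiently transfected COS-7 cells expressing human GIP receptor, pretreated with 1 mM IBMX in HBS 30 min at 37 °C. Agonism: ligand 30 min at 37 °C; antagonism: 10 min antagonist preincubation, then GIP at 50-80% maximal response for 20 min. cAMP measured by HitHunter cAMP XS.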

human GIP receptor [4] = biological target: T1, human GIP receptor; test: cAMP accumulation, agonism (DiscoveRx HitHunter cAMP XS assay); parameters: host or cells: COS-7 (transient, calcium phosphate; pCMV-Script vector); conditions: COS-7, read-out: cAMP agonism, Emax
Procedure, shortened: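 cAMP accumulation measured by HitHunter cAMP XS in COS-7 cells transiently expressing human GIP receptor, after 30 min in HBS with 1 mM IBMX at 37 °C. Antagonists preincubated 10 min before GIP giving 50-80% of maximum, then 20 min more; agonist mode used 30 min ligand exposure.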

**Q.** What does the source list for CC[C@H](C)[C@H](NC(=O)[C@H](CO)NC(=O)[C@H](Cc1ccc(O)cc1)NC(=O)[C@H](CC(=O)O)NC(=O)[C@H](CO)NC(=O)[C@@H](NC(=O)[C@H](Cc1ccccc1)NC(=O)[C@@H](NC(=O)CNC(=O)[C@@H](N)CO)[C@@H](C)O)[C@@H](C)CC)C(=O)N[C@@H](C)C(=O)N[C@@H](CCSC)C(=O)N[C@@H](CC(=O)O)C(=O)N[C@@H](CCCNC(=N)N)C(=O)N[C@H](C(=O)N[C@@H](CCCCNC(=O)COCCOCCNC(=O)COCCOCCNC(=O)CC[C@H](NC(=O)CCCCCCCCCCCCCCC(=O)O)C(=O)O)C(=O)N[C@@H](CCC(N)=O)C(=O)N[C@@H](CCC(N)=O)C(=O)N[C@@H](CC(=O)O)C(=O)N[C@@H](Cc1ccccc1)C(=O)N[C@H](C(=O)N[C@@H](CC(N)=O)C(=O)N[C@@H](Cc1c[nH]c2ccccc12)C(=O)N[C@@H](CC(C)C)C(=O)N[C@@H](CC(C)C)C(=O)N[C@@H](C)C(=O)N[C@@H](CCC(N)=O)C(=O)N[C@@H](CCCNC(=N)N)C(=O)O)C(C)C)[C@@H](C)CC [AT277] (H-SGTFISDYSIAMDRIK([AEEA-AEEA-γGlu-C16 diacid])QQDFVNWLLAQR-OH; N-terminus assumed)?
**A.** Emax (human GIP receptor [1]): 8%; GLP-1R, Antagonism, %inhib (GLP1 receptor (GLP1R); COS-7 cells): 68%; GLP-1R, Antagonism, index (GLP1 receptor (GLP1R); selectivity index versus GIPR): 561; Glucagon R, Antagonism, nM (glucagon receptor (GcgR)): No antagonism; GLP-2R, Antagonism (GLP2 receptor (GLP2R)): No antagonism; Secretin R, Antagonism (secretin receptor (SCTR)): No antagonism; IC50 (human GIP receptor [2]; GIPR, Antagonism, nM, Table 3C, CisBio assay): 31.6 nM; cAMP antagonism, % inhib (human GIP receptor [2]; Table 1C, CisBio, HEK-293 cells): 84%; GIPR, Antagonism, % inhib (human GIP receptor [2]; Table 3C, CisBio assay): 84%; IC50 (human GIP receptor [2]; cAMP antagonism, nM (IC50), Table 1C, CisBio, HEK-293 cells, agonist GIP1-42 at EC50): 31.6 nM; IC50 (human GIP receptor [3]): 16 nM; Emax (human GIP receptor [4]): 9%
